Values after ≈ are worked out from the molar mass of the structure shown.
Columns and labels:
HeLa = experiment: Cytotoxicity against HeLa cells; format: functional, cell-based; details: Homo sapiens
[1] = molecular target: Proto-oncogene tyrosine-protein kinase Src (Homo sapiens) (UniProt P12931); experiment: Inhibition of protein tyrosine kinase mediated [gamma-32P]-ATP incorporation at 0.1 ug/mL in src-transformed NIH3T3
[2] = Cytotoxicity against KB/VJ300 cells; format: functional, cell-based; details: Homo sapiens
[3] = molecular target: Proto-oncogene tyrosine-protein kinase Src (Homo sapiens) (UniProt P12931); experiment: Inhibition of protein tyrosine kinase mediated [gamma-32P]-ATP incorporation at 10 ug/mL in src-transformed NIH3T3
[4] = molecular target: Proto-oncogene tyrosine-protein kinase Src (Homo sapiens) (UniProt P12931); experiment: Inhibition of protein tyrosine kinase mediated [gamma-32P]-ATP incorporation at 1 ug/mL in src-transformed NIH3T3
[5] = molecular target: T1, cAMP-dependent protein kinase (PKA) (Homo sapiens) (UniProt P22694+P17612+P22612); experiment: Inhibition of Protein kinase A mediated [gamma-32P]-ATP incorporation at 1 ug/mL; format: protein assay
Jurkat = experiment: Cytotoxicity against Jurkat cells; format: functional, cell-based; details: Homo sapiens
[6] = molecular target: T2, Eukaryotic elongation factor 2 kinase (Homo sapiens) (UniProt O00418); experiment: Inhibition of eukaryotic elongation factor-2 kinase mediated [gamma-32P]-ATP incorporation at 10 ug/mL; Range is 50-80
T2 sequence (whole entry): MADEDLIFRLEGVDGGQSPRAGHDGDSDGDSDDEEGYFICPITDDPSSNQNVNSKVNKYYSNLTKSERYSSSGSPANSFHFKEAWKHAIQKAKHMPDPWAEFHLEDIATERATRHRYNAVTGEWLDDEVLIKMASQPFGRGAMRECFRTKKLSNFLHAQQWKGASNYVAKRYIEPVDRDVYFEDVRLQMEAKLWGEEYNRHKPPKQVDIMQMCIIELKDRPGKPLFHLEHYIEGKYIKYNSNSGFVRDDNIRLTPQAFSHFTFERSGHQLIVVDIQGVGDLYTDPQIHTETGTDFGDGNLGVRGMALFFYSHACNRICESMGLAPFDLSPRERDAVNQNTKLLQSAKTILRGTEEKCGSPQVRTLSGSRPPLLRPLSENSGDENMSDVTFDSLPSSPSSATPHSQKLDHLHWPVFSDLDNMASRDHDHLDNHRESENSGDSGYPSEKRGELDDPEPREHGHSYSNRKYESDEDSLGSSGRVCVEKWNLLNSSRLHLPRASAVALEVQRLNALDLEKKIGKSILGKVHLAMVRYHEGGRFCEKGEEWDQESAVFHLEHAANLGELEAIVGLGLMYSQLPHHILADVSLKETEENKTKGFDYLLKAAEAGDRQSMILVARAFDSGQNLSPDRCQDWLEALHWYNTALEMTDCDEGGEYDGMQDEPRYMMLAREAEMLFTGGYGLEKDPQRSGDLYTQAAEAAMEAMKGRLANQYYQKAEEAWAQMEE

[7] = molecular target: T3, Protein kinase C (PKC) (Homo sapiens) (UniProt O94806+P41743+P17252+P05129+Q05655+P05771+Q05513+Q02156+P24723+Q15139+Q04759); experiment: Inhibition of Protein kinase C mediated […]-ATP incorporation at 0.1 ug/mL; format: protein assay
[8] = molecular target: T1, cAMP-dependent protein kinase (PKA) (Homo sapiens); experiment: Inhibition of Protein kinase A mediated [gamma-32P]-ATP incorporation at 0.1 ug/mL; format: protein assay
[9] = molecular target: Vascular endothelial growth factor receptor 1 (Homo sapiens) (UniProt P17948); experiment: Inhibition of Vascular endothelial growth factor receptor 1 mediated [gamma-32P]-ATP incorporation at 10 ug/mL
Chain of Vascular endothelial growth factor receptor 1 (Homo sapiens) (P17948 whole entry): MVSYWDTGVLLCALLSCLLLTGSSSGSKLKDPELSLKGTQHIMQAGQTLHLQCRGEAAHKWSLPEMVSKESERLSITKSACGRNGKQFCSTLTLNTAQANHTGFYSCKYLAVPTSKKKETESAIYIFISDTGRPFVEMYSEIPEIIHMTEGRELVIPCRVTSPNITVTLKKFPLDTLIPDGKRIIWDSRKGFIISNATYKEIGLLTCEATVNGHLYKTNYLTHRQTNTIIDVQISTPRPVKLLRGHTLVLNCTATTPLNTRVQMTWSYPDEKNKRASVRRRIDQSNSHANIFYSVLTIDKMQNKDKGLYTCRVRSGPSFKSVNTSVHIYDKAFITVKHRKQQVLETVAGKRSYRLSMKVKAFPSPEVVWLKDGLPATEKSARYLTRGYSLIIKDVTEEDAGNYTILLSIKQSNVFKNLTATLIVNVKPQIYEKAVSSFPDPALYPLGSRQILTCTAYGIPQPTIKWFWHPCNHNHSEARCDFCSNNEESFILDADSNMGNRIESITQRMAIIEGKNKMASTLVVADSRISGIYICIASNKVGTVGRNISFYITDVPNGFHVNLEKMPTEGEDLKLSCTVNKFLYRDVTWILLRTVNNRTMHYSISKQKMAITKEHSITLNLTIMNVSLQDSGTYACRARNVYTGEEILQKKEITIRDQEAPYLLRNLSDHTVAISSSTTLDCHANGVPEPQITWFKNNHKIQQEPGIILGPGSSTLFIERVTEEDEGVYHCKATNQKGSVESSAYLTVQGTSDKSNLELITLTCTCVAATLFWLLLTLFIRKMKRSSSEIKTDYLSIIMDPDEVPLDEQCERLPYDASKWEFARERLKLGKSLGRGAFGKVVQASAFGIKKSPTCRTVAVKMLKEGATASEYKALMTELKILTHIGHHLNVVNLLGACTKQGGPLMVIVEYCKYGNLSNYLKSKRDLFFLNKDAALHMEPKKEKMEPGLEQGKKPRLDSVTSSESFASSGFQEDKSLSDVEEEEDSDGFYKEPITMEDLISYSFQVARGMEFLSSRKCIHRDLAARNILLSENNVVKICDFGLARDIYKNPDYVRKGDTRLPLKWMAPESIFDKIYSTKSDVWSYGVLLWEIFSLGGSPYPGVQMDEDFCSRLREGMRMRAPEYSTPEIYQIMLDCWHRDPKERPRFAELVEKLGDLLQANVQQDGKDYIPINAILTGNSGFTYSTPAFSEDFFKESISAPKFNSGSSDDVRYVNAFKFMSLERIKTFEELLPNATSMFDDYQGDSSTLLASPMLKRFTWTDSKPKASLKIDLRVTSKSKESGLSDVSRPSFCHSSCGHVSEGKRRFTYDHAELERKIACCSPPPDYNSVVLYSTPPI

[10] = molecular target: Vascular endothelial growth factor receptor 1 (Homo sapiens) (UniProt P17948); experiment: Inhibition of Vascular endothelial growth factor receptor 1 mediated [gamma-32P]-ATP incorporation at 0.1 ug/mL
[11] = molecular target: T3, Protein kinase C (PKC) (Homo sapiens); experiment: Inhibition of Protein kinase C mediated […]-ATP incorporation at 1 ug/mL; format: protein assay
[12] = molecular target: T2, Eukaryotic elongation factor 2 kinase (Homo sapiens); experiment: Inhibition of eukaryotic elongation factor-2 kinase mediated [gamma-32P]-ATP incorporation at 1 ug/mL
[13] = molecular target: Vascular endothelial growth factor receptor 1 (Homo sapiens) (UniProt P17948); experiment: Inhibition of Vascular endothelial growth factor receptor 1 mediated [gamma-32P]-ATP incorporation at 1 ug/mL
[14] = molecular target: T3, Protein kinase C (PKC) (Homo sapiens); experiment: Inhibition of Protein kinase C mediated […]-ATP incorporation at 10 ug/mL; format: protein assay
[15] = molecular target: T2, Eukaryotic elongation factor 2 kinase (Homo sapiens); experiment: Inhibition of eukaryotic elongation factor-2 kinase mediated [gamma-32P]-ATP incorporation at 0.1 ug/mL
[16] = molecular target: T1, cAMP-dependent protein kinase (PKA) (Homo sapiens); experiment: Inhibition of Protein kinase A mediated [gamma-32P]-ATP incorporation at 10 ug/mL; format: protein assay
[17] = molecular target: T2, Eukaryotic elongation factor 2 kinase (Homo sapiens); experiment: Inhibition of eukaryotic elongation factor-2 kinase mediated [gamma-32P]-ATP incorporation at 10 ug/mL
[18] = molecular target: T3, Protein kinase C (PKC) (Homo sapiens); experiment: Inhibition of Protein kinase C mediated […]-ATP incorporation at 10 ug/mL; Range is 50 to 80%; format: protein assay
[19] = molecular target: Proto-oncogene tyrosine-protein kinase Src (Homo sapiens) (UniProt P12931); experiment: Inhibition of protein tyrosine kinase mediated [gamma-32P]-ATP incorporation at 10 ug/mL in src-transformed NIH3T3; range = 50-80%

Chain of Proto-oncogene tyrosine-protein kinase Src (Homo sapiens) (P12931 2-536 limits assumed): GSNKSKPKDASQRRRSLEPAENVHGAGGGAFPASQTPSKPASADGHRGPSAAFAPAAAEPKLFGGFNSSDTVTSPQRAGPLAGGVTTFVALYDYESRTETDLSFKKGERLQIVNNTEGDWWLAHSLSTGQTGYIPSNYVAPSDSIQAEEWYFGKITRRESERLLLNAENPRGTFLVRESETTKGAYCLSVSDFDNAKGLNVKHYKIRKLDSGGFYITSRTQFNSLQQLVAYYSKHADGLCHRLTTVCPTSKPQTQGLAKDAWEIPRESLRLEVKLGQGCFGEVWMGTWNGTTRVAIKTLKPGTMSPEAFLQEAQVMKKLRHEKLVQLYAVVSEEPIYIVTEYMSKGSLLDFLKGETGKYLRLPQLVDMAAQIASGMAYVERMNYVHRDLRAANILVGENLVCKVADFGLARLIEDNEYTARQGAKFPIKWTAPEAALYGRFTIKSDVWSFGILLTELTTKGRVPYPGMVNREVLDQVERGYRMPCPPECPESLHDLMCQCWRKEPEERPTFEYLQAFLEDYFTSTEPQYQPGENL

Row | SMILES | IC50 (HeLa) | inhibition [1] | IC50 [2] | inhibition [3] | inhibition [4] | inhibition [5] | IC50 (Jurkat) | inhibition [7] | inhibition [8] | inhibition [9] | inhibition [10] | inhibition [11] | inhibition [12] | inhibition [13] | inhibition [14] | inhibition [15] | inhibition [16] | inhibition [17] | further results
1 | O=C1NCc2c1c1c3ccc(O)cc3[nH]c1c1[nH]c3ccccc3c21 | 5.4 µg/mL (≈ 16.5 µM) | < 50% | 7.6 µg/mL (≈ 23.2 µM) | > 80% | 80% | < 50% | 1.34 µg/mL (≈ 4.09 µM) | < 50% | < 50% | 80% | < 50% | < 50% | < 50% | < 50% | 80% | < 50% | 80% | – | inhibition [6]: 80%
2 | O=C1NC(=O)c2c1c1c3ccccc3[nH]c1c1[nH]c3cc(O)c(O)cc3c21 | 2.1 µg/mL (≈ 5.88 µM) | < 50% | 25 µg/mL (≈ 70 µM) | – | < 50% | < 50% | 0.84 µg/mL (≈ 2.35 µM) | < 50% | < 50% | < 50% | < 50% | < 50% | < 50% | < 50% | – | < 50% | < 50% | < 50% | inhibition [18]: 80%; inhibition [19]: 80%
3 | COC(=O)c1[nH]c(C(=O)OC)c(-c2c[nH]c3ccc(O)cc23)c1-c1c[nH]c2ccccc12 [LYCOGARUBIN B] | – | < 50% | > 25 µg/mL | < 50% | < 50% | < 50% | 18 µg/mL (≈ 41.9 µM) | < 50% | – | < 50% | < 50% | < 50% | < 50% | 50% | < 50% | < 50% | < 50% | < 50% | –
4 | COC(=O)c1[nH]c(C(=O)OC)c(-c2c[nH]c3ccccc23)c1-c1c[nH]c2ccccc12 [LYCOGARUBIN C] | – | < 50% | > 25 µg/mL | < 50% | < 50% | < 50% | 15.3 µg/mL (≈ 37 µM) | < 50% | < 50% | < 50% | – | < 50% | < 50% | < 50% | < 50% | < 50% | < 50% | < 50% | –
5 | O=C1NC(=O)C(c2c[nH]c3ccccc23)=C1c1c[nH]c2ccccc12 [RO-316233] | – | < 50% | > 25 µg/mL | 80% | < 50% | < 50% | 6.3 µg/mL (≈ 19.2 µM) | – | < 50% | < 50% | < 50% | < 50% | < 50% | < 50% | – | < 50% | 80% | < 50% | –

— ChEMBL document CHEMBL1145273, “New cytotoxic bisindole alkaloids with protein tyrosine kinase inhibitory activity from a myxomycete Lycogala epidendrum” (Bioorg Med Chem Lett, 2005)
